Data on two substances can be found in patent publication US20090136522A1, “Multivalent Immunogen” (priority 2006, published 2009).

In this assay the test system is 4E10 mAb. The assay is described as follows: Binding of chromophore labeled tetramers to 4E10 antibody coated beads. The conditions noted are these: chromophore on tetramer-SA complex. An excerpt: FIGS. 6A-6F: Binding of chromophore labeled tetramers to 4E10 antibody coated beads. In all panels, shaded curves show binding to control Ig-coated beads and solid lines show binding to 4E10 coated beads. FIG. 6A. 2F5-epitope tetramers labeled with APC. FIG. 6B. 2F5-epitope tetramers labeled with PE-AF680. FIG. 6C. V3-epitope tetramers labeled with PE-AF750. FIG. 6D. Scrambled 2F5-epitope tetramers labeled with APC. FIG. 6E. Scrambled 2F5-epitope tetramers labeled with PE-AF680. FIG. 6F. Scrambled V3-epitope tetramers labeled with PE-AF750. Thus, 4E10 mAb binds to phycoerythrin on any tetramer-SA complex.
The specificity of the tetramers can be determined using a panel of murine hybridoma cell lines that produce either antibodies that react with the 2F5 epitope (5A9), the 4E10 epitope of HIV gp41 (10B12) or the V3 region of HIV gp120 (7B9 or F39F). Using these cell lines, the B cell tetramer can be bound to the cell line and assayed for binding by, for example, flow cytometry (FIGS. 4A and 4B). Alternatively, the 2F5, 4E10 anti-MPER and 7B9 anti-V3 mAbs can be conjugated to, for example, a […], and the specificity of tetramer binding to the beads determined (FIG. 5).
Studies conducted have shown that a mimetope of the MPER 4E10 region is phycoerythrin, in that 4E10 mAb coated beads bound tetramer labeled with phycoerythrin but not allophycocyanin (APC) (FIG. 6). […]

Entries after “also recorded” stand apart in the source; their conditions may differ.

For the substance allophycocyanin [allophycocyanin (APC)], the “binding to 4E10 mAb coated beads” value is “not”.

With phycoerythrin, the “binding to 4E10 mAb coated beads” value is “binds; also recorded: bound”.
